{"source": "patent US20100099714A1", "about": "“AMPA and NMDA Receptor Antagonists for Neurodegenerative Diseases” (Eisai R&D Management Co., Ltd., priority 2007, published 2010)", "key": {"[1]": {"settings": "20 mg, single dose treatment; cited from earlier work"}, "Alzheimer's disease": {"tested_on": "Alzheimer's disease", "settings": "Alzheimer's disease trials; cited from earlier work"}, "[2]": {"test": "Pharmacokinetic study of memantine, plasma concentration after single dose", "format": "in vivo, human", "settings": "corresponds to 20-25 ng/ml at 20 mg single dose", "description": "The efficacy of memantine in a variety of dementias has been shown in clinical trials. Memantine is considered to be a promising neuroprotective drug for the treatment of dementias, particularly Alzheimer's disease (Jain K K, Evaluation of memantine for neuroprotection in dementia. Expert Opin Investig Drugs 2000; 9(6): 1397-406.). Clinical dosage of mamentine is 20 mg/day. Maximal plasma concentration of memantine at 20 mg was at around 20-25 ng/ml after single dose treatment (Periclou A, et al., Pharmacokinetic study of memantine in healthy and renally impaired subjects. Clin Pharmacol Ther 2006; 79: 134-43.). This plasma concentration roughly correspond to 0.1 μM."}, "[3]": {"settings": "40 mg/day compared to 20 mg/day; cited from earlier work"}, "Cortical cell cultures": {"tested_on": "Cortical cell cultures", "test": "NMDA and kainate-induced toxicity, MTT assay of cell viability", "format": "cell-based, rat", "settings": "for protection of neuron from excitotoxicity induced by combination treatment with kainate and NMDA: 100 μM NMDA and 100 μM kainate for 24 h, monotherapy, FIG. 1A, B", "description": "Cortical cell cultures were prepared from fetal rats of the Wistar strain (gestational age of 17 to 19 days, Charles River Japan, Kanagawa, Japan). The cortex was dissected and kept in Neurobasal medium (Invitrogen Corp., Carlsbad, Calif., USA) containing 2% B27 supplement (Invitrogen), 25 μM 2-mercaptoethanol (Wako), 0.5 mM L-glutamine (Invitrogen) and ×1/100 volume of antibiotic-antimycotic (Invitrogen), then incubated at 37° C. for 30 min in Ca^2+/Mg^2+ free Hank's balanced salt solution (MSS; 10 mM HEPES, pH 7.3) containing 0.25% trypsin (Invitrogen) and 0.2 mg/ml deoxyribonuclease (DNase) (Sigma). The cortical tissues were dissociated to single cells by gentle trituration. The cell suspension was centrifuged at 310×g for 3 min and the resulting pellets were resuspended in the medium described above.\nThe cells were plated at an initial cell density of 5×10^5 cells/cm^2 in poly-L-lysine (Sigma)-coated 96-well plates. The cells were cultured in a CO2 incubator (5% (v/v), at 37° C. in the Neurobasal medium described above for 7 days, and cultured following 4 days in culture medium without antioxidant B27 supplement and 2-mercaptoethanol. The cultures were exposed to 100 μM of N-methyl-D-aspartate (NMDA)(Sigma) and 100 μM of kainate (Sigma) for 24 h at 37° C. The cells were treated with perampanel (0.03, 0.3, 3 or 30 μM) and memantine HCl (0.1, 1, 10 or 100 μM) for 24 h before and during the exposure to these agonists. In the combination experiment, perampanel at […] or memantine at 10 μM or its combination was used.\nViability of cells grown in 96-well plates was measured by 3-[4,5-dimethylthylthiazol-2-yl]-2,5-diphenyltetrazolium bromide (MTT) assay. The 10 μl of 8 mg/ml MTT (Sigma) solution in D-PBS(−) (Dulbecco's phosphate-buffered saline, Sigma) was added to each well. During 10 min incubation at 37° C., the active dehydrogenase in viable mitochondria reduces the tetrazolium ring of MTT, forming a blue-colored precipitate. The cells were lysed and the precipitate was dissolved in […] of MTT solubilizing buffer containing 20% sodium dodecyl sulfate (SDS: Wako) in 50% N,N-dimethyl formamide at pH 4.7, and quantified spectrophotometrically at 550-690 nm.\nWells without cells, containing only the medium and MTT solution, were measured to obtain the background value, which was subtracted from measured values at 550-690 nm, as follows: % of Recovery=(sample−NMDA/Kainate treated control)/(non-treated control−NMDA/Kainate treated control)×100.\nThe data were analyzed with one-way analysis of variance (ANOVA) followed by Dunnett's multiple comparison test using the software package SAS ver. 8.2 (SAS Institute Japan Ltd., Tokyo, Japan)."}, "[4]": {"settings": "clinically relevant concentration, roughly 0.1 μM"}}}
{"smiles": "C[C@]12CC3C[C@](C)(C1)C[C@@](N)(C3)C2", "note": "[memantine, 1-amino-3,5-dimethyl-adamantane]", "values": [{"measurement": "Maximal plasma concentration", "setting": "[1]", "result": "20 to 25", "unit": "ng/mL"}, {"measurement": "clinical effect", "setting": "Alzheimer's disease", "result": "modest"}, {"measurement": "plasma concentration converted to molar", "setting": "[2]", "result": "~100", "unit": "nM"}, {"measurement": "risk of adverse event", "setting": "[3]", "result": "higher risk of adverse event"}, {"measurement": "protection of neuron from excitotoxicity induced by combination treatment with kainate and NMDA", "setting": "Cortical cell cultures", "result": "protected neuron from excitotoxicity"}, {"measurement": "effect size at clinically relevant concentration", "setting": "Cortical cell cultures; [4]", "result": "small and far below maximal effect"}, {"measurement": "neuroprotective effect at clinically relevant concentration", "setting": "Cortical cell cultures; [4]", "result": "significant neuroprotective effect"}]}
{"smiles": "N#Cc1ccccc1-c1cc(-c2ccccn2)cn(-c2ccccc2)c1=O", "note": "[perampanel, 2-(2-oxo-1-phenyl-5-pyridin-2-yl-1,2-dihydropyridin-3-yl)benzonitrile]", "values": [{"measurement": "shape of the neuroprotective effect over concentration", "setting": "Cortical cell cultures; 100 μM NMDA and 100 μM kainate", "result": "ceiling on the effect from lowest concentration showing neuroprotection"}, {"measurement": "protection of neuron from excitotoxicity induced by combination treatment with kainate and NMDA", "setting": "Cortical cell cultures", "result": "protected neuron from excitotoxicity"}]}
